Results published in patent US8354434B2, “Cyclourea compounds as calcium channel blockers” (Purdue Pharma L.P., priority 2006, dated 2013).

What was measured:
[1] = molecular target: T1, N-type calcium channel (NTCC) (Homo sapiens, UniProt Q00975); experiment: FLIPR calcium mobilization assay for N-type calcium channel; format: cell-based; conditions: calcium mobilization in vitro assay, differentiated IMR32 cells
T1 construct: endogenous in cells; host or cells: IMR32 cells (ATCC), differentiated 8 days with dibutyryl cAMP and bromodeoxyuridine
Description: Cell maintenance and differentiation. Unless noted otherwise, cell culture reagents were purchased from Life Technologies of Rockville, Md. IMR32 cells (American Type Culture Collection, ATCC, Manassas, Va.) were routinely cultured in growth medium consisting of minimum essential medium containing 10% fetal bovine serum (FBS, Hyclone, Logan, Utah), 100 U/mL penicillin, 100 μg/mL streptomycin, 2 mM L-glutamine, 1 mM sodium pyruvate, and 1×MEM non-essential amino acids. 80-90% confluent flasks of cells were differentiated using the following differentiation medium: Growth medium plus 1 mM dibutyryl cyclic AMP (Sigma, St. Louis, Mo.), and 2.5 μM bromodeoxyuridine (Sigma). Cells were differentiated for 8 days by replacing differentiation medium every 2-3 days.
FLIPR Calcium Mobilization Assay for N-type Calcium Channel. One day prior to performing this assay, differentiated IMR32 cells were treated with 1×CellStripper, and seeded on poly-D-lysine-coated 96-well clear-bottom black plates (Becton Dickinson, Franklin Lakes, N.J.) at 200,000 cells/well. On the day of the assay, the cell plates were washed with IMR32 buffer (127 mM NaCl, 1 mM KCl, 2 mM MgCl2, 700 μM NaH2PO4, 5 mM CaCl2, 5 mM NaHCO3, 8 mM HEPES, 10 mM glucose, pH 7.4), then pre-stimulated with KCl and loaded as follows: 0.05 mL of IMR32 buffer, 0.05 mL of each compound tested diluted in IMR32 buffer containing 20 μM nitrendipine (Sigma), and 0.1 mL KCl dissolved in IMR32 buffer, plus Fluo-4 were added (3 μM final concentration, Molecular Probes, Eugene, Oreg.). Final test compound concentrations ranged from about 846 μM to about 17 μM, final nitrendipine concentration was 5 μM, and final KCl concentration was 90 mM. After 1 hour, the cells were washed twice with 0.05 mL of each compound tested in nitrendipine-containing IMR32 buffer (no KCl or Fluo-4), and then replaced with 0.1 mL of each compound tested in nitrendipine-containing IMR32 buffer. Plates were then transferred to a Fluorimetric Imaging Plate Reader (FLIPR^96, Molecular Devices, Inc., Sunnyvale, Calif.) for assay. The FLIPR measured basal Fluo-4 fluorescence for 315 seconds (i.e., 5 minutes and 15 seconds), then added 0.1 mL KCl agonist dissolved in IMR32 buffer and measured fluorescence for another 45 seconds. Final test compound concentrations on the cells after FLIPR read ranged from about 846 μM to about 17 μM, final nitrendipine concentration was 5 μM, and final KCl concentration was 90 mM. Data were collected over the entire time course and analyzed using Excel, Graph Pad Prism (version 3.02, Graph Pad, San Diego, Calif.), or Activity Base (version 5.1, IDBS, Parsippany, N.J.) software.

[2] = molecular target: T2, L-type calcium channel (LTCC) (Rattus norvegicus, UniProt P22002); experiment: FLIPR calcium mobilization assay for L-type calcium channel; format: cell-based; conditions: calcium mobilization in vitro assay, differentiated A7r5 cells
T2 construct: differentiated A7r5 cells were trypsinized, then seeded on tissue culture treated 96-well clear-bottom black plates; endogenous in cells; host or cells: A7r5 cells (ATCC), differentiated 8 days with dibutyryl cAMP
T2 sequence (P22002 whole entry): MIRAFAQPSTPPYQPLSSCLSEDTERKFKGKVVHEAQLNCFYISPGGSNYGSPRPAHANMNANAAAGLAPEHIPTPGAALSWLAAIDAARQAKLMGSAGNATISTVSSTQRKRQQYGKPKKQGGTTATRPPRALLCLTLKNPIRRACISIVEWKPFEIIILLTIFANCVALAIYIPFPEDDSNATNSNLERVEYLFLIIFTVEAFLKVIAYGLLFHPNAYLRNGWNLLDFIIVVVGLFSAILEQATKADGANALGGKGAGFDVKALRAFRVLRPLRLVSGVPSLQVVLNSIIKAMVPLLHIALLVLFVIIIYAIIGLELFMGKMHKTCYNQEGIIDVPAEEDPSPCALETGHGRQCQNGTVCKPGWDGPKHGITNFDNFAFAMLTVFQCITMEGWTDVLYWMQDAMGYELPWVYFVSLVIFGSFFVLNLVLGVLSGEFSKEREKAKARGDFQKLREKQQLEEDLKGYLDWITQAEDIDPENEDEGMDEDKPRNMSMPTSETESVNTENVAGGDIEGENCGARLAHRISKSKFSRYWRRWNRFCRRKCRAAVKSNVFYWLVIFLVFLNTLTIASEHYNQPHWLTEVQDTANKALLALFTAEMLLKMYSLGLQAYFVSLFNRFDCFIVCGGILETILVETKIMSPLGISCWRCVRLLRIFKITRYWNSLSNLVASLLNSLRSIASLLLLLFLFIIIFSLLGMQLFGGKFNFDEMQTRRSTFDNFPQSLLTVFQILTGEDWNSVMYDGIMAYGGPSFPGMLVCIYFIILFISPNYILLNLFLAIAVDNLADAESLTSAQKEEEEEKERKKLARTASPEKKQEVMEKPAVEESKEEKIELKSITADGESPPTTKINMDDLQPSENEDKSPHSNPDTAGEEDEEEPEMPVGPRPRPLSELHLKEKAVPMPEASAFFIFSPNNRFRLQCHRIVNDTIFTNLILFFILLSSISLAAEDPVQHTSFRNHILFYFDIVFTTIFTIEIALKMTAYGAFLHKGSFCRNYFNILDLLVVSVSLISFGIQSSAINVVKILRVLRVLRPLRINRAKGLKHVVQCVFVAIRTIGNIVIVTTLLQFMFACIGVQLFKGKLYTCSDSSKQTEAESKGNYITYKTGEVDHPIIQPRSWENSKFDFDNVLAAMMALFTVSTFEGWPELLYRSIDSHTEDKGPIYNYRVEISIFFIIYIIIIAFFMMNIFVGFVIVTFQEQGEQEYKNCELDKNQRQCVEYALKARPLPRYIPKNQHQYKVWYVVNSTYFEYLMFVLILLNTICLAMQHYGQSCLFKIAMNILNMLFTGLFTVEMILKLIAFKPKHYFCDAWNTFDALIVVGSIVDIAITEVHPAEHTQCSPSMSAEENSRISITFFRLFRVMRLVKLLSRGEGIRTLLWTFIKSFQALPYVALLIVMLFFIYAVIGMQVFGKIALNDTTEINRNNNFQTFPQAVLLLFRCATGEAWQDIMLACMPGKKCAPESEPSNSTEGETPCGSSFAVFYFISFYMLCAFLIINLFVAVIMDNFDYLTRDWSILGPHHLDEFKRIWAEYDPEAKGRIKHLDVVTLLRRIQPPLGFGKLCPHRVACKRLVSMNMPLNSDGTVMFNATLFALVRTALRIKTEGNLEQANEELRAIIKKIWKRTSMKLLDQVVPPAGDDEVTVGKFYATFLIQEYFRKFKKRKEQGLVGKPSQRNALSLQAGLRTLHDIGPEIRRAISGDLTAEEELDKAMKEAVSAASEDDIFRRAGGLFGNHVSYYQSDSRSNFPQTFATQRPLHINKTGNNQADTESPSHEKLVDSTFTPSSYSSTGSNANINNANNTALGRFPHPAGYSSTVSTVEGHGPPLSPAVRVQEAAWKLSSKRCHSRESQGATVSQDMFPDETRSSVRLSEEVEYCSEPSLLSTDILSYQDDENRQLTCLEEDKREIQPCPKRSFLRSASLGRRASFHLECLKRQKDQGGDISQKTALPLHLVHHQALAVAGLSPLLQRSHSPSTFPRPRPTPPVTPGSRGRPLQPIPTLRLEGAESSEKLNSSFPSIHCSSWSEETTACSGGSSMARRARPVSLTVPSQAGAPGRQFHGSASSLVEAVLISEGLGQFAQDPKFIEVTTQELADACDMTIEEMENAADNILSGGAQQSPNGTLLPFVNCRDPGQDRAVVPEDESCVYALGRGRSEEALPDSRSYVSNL
T2 sequence (P54287 whole entry partner): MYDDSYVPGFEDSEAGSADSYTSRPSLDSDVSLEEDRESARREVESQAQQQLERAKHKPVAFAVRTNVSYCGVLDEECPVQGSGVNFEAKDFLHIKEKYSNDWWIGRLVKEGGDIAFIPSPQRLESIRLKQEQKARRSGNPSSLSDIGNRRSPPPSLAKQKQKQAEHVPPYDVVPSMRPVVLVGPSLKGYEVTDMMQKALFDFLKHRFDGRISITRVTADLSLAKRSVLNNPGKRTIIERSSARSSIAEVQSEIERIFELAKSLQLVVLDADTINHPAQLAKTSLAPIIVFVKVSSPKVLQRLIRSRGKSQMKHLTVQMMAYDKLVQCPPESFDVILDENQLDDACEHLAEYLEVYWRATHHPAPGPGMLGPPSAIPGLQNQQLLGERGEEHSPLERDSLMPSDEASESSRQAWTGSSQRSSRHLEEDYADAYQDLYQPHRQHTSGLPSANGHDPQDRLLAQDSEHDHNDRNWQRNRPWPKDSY
T2 sequence (P54290 25-944 partner limits assumed): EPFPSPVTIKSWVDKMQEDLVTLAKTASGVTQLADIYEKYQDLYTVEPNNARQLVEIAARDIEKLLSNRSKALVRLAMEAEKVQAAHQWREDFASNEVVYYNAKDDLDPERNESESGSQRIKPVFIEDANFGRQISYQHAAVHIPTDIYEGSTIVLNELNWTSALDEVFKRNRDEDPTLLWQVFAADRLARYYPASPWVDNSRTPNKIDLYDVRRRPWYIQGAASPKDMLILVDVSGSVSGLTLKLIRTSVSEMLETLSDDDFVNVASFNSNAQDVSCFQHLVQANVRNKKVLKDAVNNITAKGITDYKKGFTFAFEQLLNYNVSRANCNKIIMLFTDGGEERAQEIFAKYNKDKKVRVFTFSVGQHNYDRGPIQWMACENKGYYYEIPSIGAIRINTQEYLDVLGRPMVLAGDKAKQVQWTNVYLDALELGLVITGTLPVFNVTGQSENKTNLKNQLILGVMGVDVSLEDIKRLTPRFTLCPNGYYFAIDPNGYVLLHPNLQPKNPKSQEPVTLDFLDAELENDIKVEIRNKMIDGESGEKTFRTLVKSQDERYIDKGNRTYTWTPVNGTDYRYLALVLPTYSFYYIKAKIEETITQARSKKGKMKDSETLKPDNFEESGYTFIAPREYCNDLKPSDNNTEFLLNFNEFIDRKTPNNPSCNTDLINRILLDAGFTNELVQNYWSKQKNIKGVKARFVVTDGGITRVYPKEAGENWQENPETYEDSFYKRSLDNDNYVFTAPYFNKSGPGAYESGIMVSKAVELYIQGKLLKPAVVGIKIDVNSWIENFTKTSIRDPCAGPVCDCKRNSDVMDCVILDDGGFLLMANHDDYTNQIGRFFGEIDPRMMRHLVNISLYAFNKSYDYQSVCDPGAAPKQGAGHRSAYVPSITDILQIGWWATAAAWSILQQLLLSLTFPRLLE
T2 sequence (P54290 945-1091 partner limits assumed): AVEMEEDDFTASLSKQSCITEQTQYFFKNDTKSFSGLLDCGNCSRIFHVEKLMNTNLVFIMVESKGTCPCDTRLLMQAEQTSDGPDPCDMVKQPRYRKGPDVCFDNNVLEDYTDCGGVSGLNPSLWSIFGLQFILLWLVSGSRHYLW
Description: A7r5 (ATCC) cells were maintained and routinely cultured in A7r5 growth medium consisting of Dulbecco's Modified Eagles Medium containing 10% FBS, 100 U/mL penicillin, 100 μg/mL streptomycin, 4 mM L-glutamine, and 0.15% sodium bicarbonate. 80-90% confluent flasks of cells were differentiated using the following differentiation medium: A7r5 Growth Medium plus 1 mM dibutyryl cyclic AMP (Sigma). Cells were differentiated for 8 days by replacing differentiation medium every 2-3 days.
FLIPR Calcium Mobilization Assay for L-type Calcium Channel. One day prior to performing this assay, differentiated A7r5 cells were trypsinized, then seeded on tissue culture treated 96-well clear-bottom black plates (Becton Dickinson, Franklin Lakes, N.J.) at a dilution of 1:1 from a confluent T150 cm^2 flask. On the day of the assay, the plates were washed with A7r5 wash buffer (127 mM NaCl, 2 mM MgCl2, 700 μM NaH2PO4, 5 mM CaCl2, 5 mM NaHCO3, 8 mM HEPES, 10 mM glucose, pH 7.4), then loaded with 0.1 mL of A7r5 wash buffer containing Fluo-4 (3 μM final concentration, Molecular Probes, Eugene, Oreg.). After 1 hour, the cells were washed with 0.1 mL A7r5 wash buffer and resuspended in 0.05 mL A7r5 assay buffer that was composed of A7r5 wash buffer plus 50 μM valinomycin (Sigma). Plates were then transferred to a FLIPR^96 for assay. The FLIPR measured basal Fluo-4 fluorescence for 15 seconds, then added 0.05 mL of each compound tested diluted in A7r5 assay buffer at final concentrations ranging from about […]. Fluo-4 fluorescence was then measured for 5 minutes. 0.1 mL KCl agonist dissolved in A7r5 assay buffer was then added to the cells to produce a final concentration of 90 mM KCl, and fluorescence was measured for another 45 seconds. Data were collected over the entire time course and analyzed using Excel, Graph Pad Prism, or Activity Base software.

IC50 [1] [µM]	IC50 [2] [µM]	Structure (SMILES)
4.33	10 to 20	O=C1N(CCC(c2ccccc2)c2ccccc2)CCN1c1ccccc1 [1-(3,3-diphenylpropyl)-3-phenylimidazolidin-2-one]
0.81	4.69	O=c1n(CCCC(c2ccc(F)cc2)c2ccc(F)cc2)c2ccccc2n1Cc1ccccn1 [1-[4,4-Bis(4-fluorophenyl)butyl]-3-(pyridin-2-yl)methyl-1,3-dihydro-benzoimidazol-2-one]
1.19	3.43	O=C1N(CCCC(c2ccc(F)cc2)c2ccc(F)cc2)CCN1Cc1ccncc1 [1-[4,4-Bis(4-fluorophenyl)butyl]-3-(pyridin-4-ylmethyl)imidazolidin-2-one]
2.15	> 20	O=c1n(CCCC(c2ccc(F)cc2)c2ccc(F)cc2)c2ccccc2n1CCN1CCCCC1 [1-[4,4-Bis(4-fluorophenyl)butyl]-3-[2-(piperidin-1-yl)ethyl]-1,3-dihydro-benzoimidazol-2-one]
3.69		O=C1NCCN1CCCC(c1ccc(F)cc1)c1ccc(F)cc1 [1-[4,4-Bis(4-fluorophenyl)butyl]-imidazolidin-2-one]
1.14	3.63	O=C1N(CC=Cc2ccccc2)CCN1CCCC(c1ccc(F)cc1)c1ccc(F)cc1 [1-[4,4-bis(4-fluorophenyl)butyl]-3-(3-phenylprop-2-enyl)imidazolidin-2-one]
1.36	3.56	O=C1N(CCCC(c2ccc(F)cc2)c2ccc(F)cc2)CCN1CCN1CCCC1 [1-[4,4-bis(4-fluorophenyl)butyl]-3-[2-(pyrrolidin-1-yl)ethyl]imidazolidin-2-one]
0.62	0.41	O=C1N(CCCC(c2ccc(F)cc2)c2ccc(F)cc2)CCN1C1CC1 [1-[4,4-bis(4-fluorophenyl)butyl]-3-cyclopropylimidazolidin-2-one]
0.67	0.79	CN1CCN(CCCC(c2ccc(F)cc2)c2ccc(F)cc2)C1=O [1-[4,4-bis(4-fluorophenyl)butyl]-3-methylimidazolidin-2-one]
0.34	3.29	O=C(OCc1ccccc1)N1C(=O)N(CCCC(c2ccc(F)cc2)c2ccc(F)cc2)[C@H]2C[C@H]21 [2-[4,4-Bis(4-fluorophenyl)butyl]-4-benzyloxycarbonyl-2,4-diaza-bicyclo[3.1.0]hexan-3-one]
